Test in all cases: NCI anticancer screen, dose series, 48 h
For experiment [1], the system named is A498 renal.
For experiment [2], the system named is DU-145 prostate.
For experiment [3], the system named is HCT-116 colon.
Experiment [4] concerns HCT-15 colon.
For experiment [5], the system named is IGROV1 ovarian.
Experiment [6] has as its system NCI-H522 lung.
Experiment [7] concerns OVCAR-5 ovarian.
In experiment [8] the test system is RPMI-8226 leukemia.
The subject of experiment [9] is SF-268 CNS.
The subject of experiment [10] is SR leukemia.
In experiment [11] the test system is T-47D breast.
Experiment [12] concerns TK-10 renal.
In experiment [13] the test system is A549 NSCLC.
Experiment [14] relates to SK-OV-3 ovarian.
The test system of experiment [15] is CCRF-CEM leukemia.

The structures appear in SMILES notation.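 The compound was tested at five concentrations on cells cultured in 96-well plates, with a 48-hour exposure period. The concentration for 50% growth inhibition is given as GI50. TGI: concentration producing complete growth inhibition.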 Some results are limits rather than exact numbers.

Regarding `Cc1cccc(-n2c(C)nc3ccc(NC4OC(CO)C(O)C(O)C4O)cc3c2=O)c1` (stereo not drawn), the TGI in experiment [1], in experiment [2], in experiment [3], in experiment [4], in experiment [5] and in experiment [6] was over 100 µM each time. Also, the TGI in experiment [7], in experiment [8], in experiment [9], in experiment [10], in experiment [11] and in [12] was over 100 µM throughout.
As to `FC(F)(F)c1nc2ccc(SSc3ccc4nc(C(F)(F)F)[nH]c4c3)cc2[nH]1`, the GI50 in experiment [1], in [2], in [3], in experiment [5] and in experiment [9] was over 100 µM in each case. Further, the TGI in [1], in experiment [13], in experiment [2], in experiment [3], in experiment [4] and in [5] was over 100 µM in each case. The TGI in experiment [6] is over 100 µM; in experiment [7], over 100 µM; in [8], 65 µM; in experiment [9] it was over 100 µM; in experiment [10], over 100 µM; in experiment [11], over 100 µM. Moreover, in experiment [12], the TGI is over 100 µM.
With `COc1ccc(-c2cc(-c3ccc(Cl)cc3)n(C3OC(CO)C(O)C(O)C3O)c(=S)c2C#N)cc1` (stereo not drawn), the TGI in [2] was over 100 µM; in experiment [3], over 100 µM; in experiment [4], over 100 µM; in experiment [5], over 100 µM; in [7] it was 82.2 µM; in experiment [8], over 100 µM. Also, the TGI is over 100 µM in experiment [9]; over 100 µM in [14]; over 100 µM in experiment [10]; over 100 µM in experiment [11]; 82.8 µM in [12].
On to `C=C1CC(Cn2ccc(=O)[nH]c2=O)(c2ccc(-c3ccccc3)cc2)OC1=O` (stereo not drawn), for which the TGI in experiment [1] is 16.1 µM; in experiment [13], 24.9 µM; in [15] it was 1.2 µM; in experiment [2], 2.88 µM; in [3] it was 0.892 µM; in experiment [4], 3.72 µM. Further, the TGI is 2.64 µM in [5]; 2.39 µM in experiment [6]; 24.7 µM in [7]; 1.29 µM in experiment [8]; 46.3 µM in experiment [9]; 21.1 µM in [14]. For the same molecule, the TGI is 6.45 µM in experiment [11] and 2.32 µM in [12].
As to `CCOC(=O)[C@@H]1C[C@H]1c1ccc(O)c(O)c1`, the TGI in experiment [13] was over 100 µM; in experiment [2] it was over 100 µM; in experiment [3] it was 28.6 µM; in experiment [4], over 100 µM; in experiment [5], over 100 µM; in experiment [6], 47.2 µM. Moreover, the TGI in experiment [7] is over 100 µM; in [8] it was over 100 µM; in experiment [9], over 100 µM; in [14] it was over 100 µM; in experiment [10], over 100 µM; in experiment [11], 88.1 µM. The TGI in experiment [12] is over 100 µM.
`CC(NC(=O)C(OC(=O)C(C)NC(=O)OC(C)(C)C)C(C)C)C(=O)OC(C(=O)O)C(C)C` (stereo not drawn): the TGI in [13], in experiment [2], in [4], in experiment [5], in experiment [6] and in experiment [7] was over 100 µM in each case. In addition, the TGI in [8], in [9], in [14], in experiment [10], in [11] and in [12] was over 100 µM in each case.
On to `CC1CC(=O)Nc2cc(Cl)ccc2N1C(=O)C1CC1` (stereo not drawn), for which the TGI in experiment [1], in [13], in [15], in [2], in [3] and in experiment [4] was over 100 µM in each case. Besides, the TGI in experiment [5], in experiment [6], in [7], in experiment [8], in experiment [9] and in experiment [14] was over 100 µM each time. Moreover, the TGI in [11] and in [12] was over 100 µM in each case.
With `Nc1nc(Cl)c(N)c(NCC2(CO)CC(Cc3ccccc3)C2)n1` (stereo not drawn), the TGI was over 78.5 µM in experiment [1]; over 100 µM in experiment [13]; over 100 µM in experiment [15]; over 100 µM in experiment [2]; over 100 µM in experiment [3]; over 100 µM in experiment [4]. In addition, the TGI is over 100 µM in experiment [5]; over 100 µM in [6]; over 100 µM in experiment [7]; over 78.8 µM in experiment [8]; over 100 µM in experiment [9]; over 100 µM in [14]. Further, the TGI in experiment [11] and in experiment [12] was over 100 µM throughout.

These data come from PubChem BioAssay (NCI).
